In patent publication US11014911B2, “CDK2 inhibitors” (Pfizer Inc., priority 2019, dated 2021) one finds Ki data, which are given here for eleven molecules.

For orientation: Ki means a dissociation constant, usually derived from enzyme kinetics or from competition with a known ligand.

Test [1] deals with CDK2/Cyclin E1 full length (Homo sapiens (Human), UniProt P24941). Description: CDK2/Cyclin E1 full length mobility shift assay. The class given is biochemical.
The target in another test is GSK3β (H350L) (Homo sapiens (Human), UniProt P49841). As to conditions: read-out: GSK3β Ki.
GSK3β (H350L), sequence (P49841 whole entry, stated change not applied): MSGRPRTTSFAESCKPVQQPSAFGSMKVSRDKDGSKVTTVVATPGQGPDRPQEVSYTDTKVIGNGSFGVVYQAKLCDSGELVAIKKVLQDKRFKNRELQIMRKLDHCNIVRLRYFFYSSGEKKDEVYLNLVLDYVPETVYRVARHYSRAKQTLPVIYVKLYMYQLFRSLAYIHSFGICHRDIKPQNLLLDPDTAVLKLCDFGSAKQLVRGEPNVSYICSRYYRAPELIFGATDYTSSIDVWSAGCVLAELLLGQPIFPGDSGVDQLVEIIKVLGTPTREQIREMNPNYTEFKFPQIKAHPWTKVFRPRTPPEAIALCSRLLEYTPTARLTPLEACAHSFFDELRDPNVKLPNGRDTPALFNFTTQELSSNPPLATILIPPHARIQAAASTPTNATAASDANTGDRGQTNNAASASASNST

Some results are limits rather than exact numbers.

Protocol for GSK3β (H350L): The assay was initiated with the addition of ATP, following 15 minutes pre-incubation of enzyme and inhibitor at room temperature in the reaction mixture. The reaction was stopped after 30 minutes at room temperature by the addition of 50 μL of 80 mM EDTA.

With `Cc1cc(CC(=O)Nc2cc([C@H]3CC[C@@H](OC(=O)NC(C)(C)C)C3)[nH]n2)no1` [Example 295, (1R,3S)-3-(3-{[(5-methyl-1,2-oxazol-3-yl)acetyl]amino}-1H-pyrazol-5-yl)cyclopentyl tert-butylcarbamate], the inhibition constant (Ki) in test [1] was determined as 0.38 nM; at GSK3β (H350L), 56.1 nM.

`Cc1nnc(CC(=O)Nc2cc([C@H]3CC[C@@H](OC(=O)NC(C)(C)C)C3)[nH]n2)o1` [Example 298, (1R,3S)-3-(3-{[(5-methyl-1,3,4-oxadiazol-2-yl)acetyl]amino}-1H-pyrazol-5-yl)cyclopentyl tert-butylcarbamate]: the Ki in test [1] is 0.68 nM; on GSK3β (H350L), 72 nM.

As to `Cc1cnc(CC(=O)Nc2cc([C@H]3CC[C@@H](OC(=O)NC(C)(C)C)C3)[nH]n2)cn1` [Example 299, (1R,3S)-3-(3-{[(5-methylpyrazin-2-yl)acetyl]amino}-1H-pyrazol-5-yl)cyclopentyl tert-butylcarbamate], the values for the Ki (in test [1]; on GSK3β (H350L)) were 0.26 nM and 29.9 nM, respectively.

For `COCCn1nccc1C(=O)Nc1cc([C@H]2CC[C@@H](OC(=O)NC(C)(C)C)C2)[nH]n1` [Example 308, (1R,3S)-3-[3-({[1-(2-methoxyethyl)-1H-pyrazol-5-yl]carbonyl}amino)-1H-pyrazol-5-yl]cyclopentyl tert-butylcarbamate], the inhibition constant Ki in test [1] worked out at 0.3 nM; on GSK3β (H350L), 89.1 nM.

With `CC(C)(C)NC(=O)O[C@@H]1CC[C@H](c2cc(NC(=O)Cc3cc(C(F)F)ccn3)n[nH]2)C1` [Example 314, (1R,3S)-3-[3-({[4-(difluoromethyl)pyridin-2-yl]acetyl}amino)-1H-pyrazol-5-yl]cyclopentyl tert-butylcarbamate], the inhibition constant (Ki) in test [1] came out at 0.41 nM; on GSK3β (H350L), 40.6 nM.

`COc1cc(CC(=O)Nc2cc([C@H]3CC[C@@H](OC(=O)NC(C)(C)C)C3)[nH]n2)c(OC)cn1` [Example 315, (1R,3S)-3-(3-{[(2,5-dimethoxypyridin-4-yl)acetyl]amino}-1H-pyrazol-5-yl)cyclopentyl tert-butylcarbamate]: the Ki was determined as 0.65 nM in test [1] and 133 nM on GSK3β (H350L).

On to `CC(C)(C)NC(=O)O[C@@H]1CC[C@H](c2cc(NC(=O)Cc3cnc(C(F)(F)F)cn3)n[nH]2)C1` [Example 317, (1R,3S)-3-[3-({[5-(trifluoromethyl)pyrazin-2-yl]acetyl}amino)-1H-pyrazol-5-yl]cyclopentyl tert-butylcarbamate], for which the inhibition constant Ki in test [1] came to 0.26 nM; at GSK3β (H350L) it was 46 nM.

As to `COc1ccc(S(C)(=O)=O)c(CC(=O)Nc2cc([C@H]3CC[C@@H](OC(=O)NC(C)(C)C)C3)[nH]n2)c1` [Example 319, (1R,3S)-3-[3-({[5-methoxy-2-(methylsulfonyl)phenyl]acetyl}amino)-1H-pyrazol-5-yl]cyclopentyl tert-butylcarbamate], the Ki in test [1] came out at 0.39 nM; at GSK3β (H350L), 123 nM.

On to `CC[C@H](C)NC(=O)O[C@@H]1CC[C@H](c2cc(NC(=O)c3cncn3C)n[nH]2)C1` [Example 321, (1R,3S)-3-(3-{[(1-methyl-1H-imidazol-5-yl)carbonyl]amino}-1H-pyrazol-5-yl)cyclopentyl (2S)-butan-2-ylcarbamate], for which the Ki in test [1] is 0.63 nM; at GSK3β (H350L) it was > 191 nM.

As for `CC[C@@H](C)NC(=O)O[C@@H]1CC[C@H](c2cc(NC(=O)Cc3ccno3)n[nH]2)C1` [Example 322, (1R,3S)-3-{3-[(1,2-oxazol-5-ylacetyl)amino]-1H-pyrazol-5-yl}cyclopentyl (2R)-butan-2-ylcarbamate], the inhibition constant Ki in test [1] stood at 0.93 nM; at GSK3β (H350L), 81.2 nM.

Turning to `CC[C@H](C)NC(=O)O[C@@H]1CC[C@H](c2cc(NC(=O)Cc3ccon3)n[nH]2)C1` [Example 323, (1R,3S)-3-{3-[(1,2-oxazol-3-ylacetyl)amino]-1H-pyrazol-5-yl}cyclopentyl (2S)-butan-2-ylcarbamate], the Ki in test [1] stood at 1.07 nM; on GSK3β (H350L) it was 74.1 nM.
